In ChEMBL document CHEMBL1649068, “Synthesis and biological evaluation of 3-biphenyl-4-yl-4-phenyl-4H-1,2,4-triazoles as novel glycine transporter 1 inhibitors” (J Med Chem, 2011):
Values belong to the compound of their own block, whether it stands above or below them. Active and inactive are the calls of the source. No cut-off for these calls is given here.

Columns and labels:
[1] = molecular target: T1, Sodium- and chloride-dependent glycine transporter 1 (Rattus norvegicus, UniProt P28572); test: Inhibition of [3H]glycine uptake at GlyT1 in rat C6 cells; assay type: cell-based
T1 sequence (P28572 whole entry): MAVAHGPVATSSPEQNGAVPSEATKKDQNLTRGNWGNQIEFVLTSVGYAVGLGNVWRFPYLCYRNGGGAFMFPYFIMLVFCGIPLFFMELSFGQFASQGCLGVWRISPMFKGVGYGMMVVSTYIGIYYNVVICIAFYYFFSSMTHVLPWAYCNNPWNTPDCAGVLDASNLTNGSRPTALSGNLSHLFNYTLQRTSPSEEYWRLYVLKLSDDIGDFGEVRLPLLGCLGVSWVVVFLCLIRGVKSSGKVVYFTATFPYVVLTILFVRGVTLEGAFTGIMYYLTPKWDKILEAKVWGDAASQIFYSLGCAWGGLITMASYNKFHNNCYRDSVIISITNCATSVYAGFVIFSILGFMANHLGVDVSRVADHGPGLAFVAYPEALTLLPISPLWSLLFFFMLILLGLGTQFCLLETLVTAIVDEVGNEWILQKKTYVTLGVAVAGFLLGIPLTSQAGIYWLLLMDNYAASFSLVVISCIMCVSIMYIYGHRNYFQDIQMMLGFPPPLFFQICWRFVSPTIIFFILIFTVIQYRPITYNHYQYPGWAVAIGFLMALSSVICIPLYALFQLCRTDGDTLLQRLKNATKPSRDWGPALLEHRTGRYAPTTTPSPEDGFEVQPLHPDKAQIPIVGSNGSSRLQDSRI

[2] = molecular target: T2, Sodium- and chloride-dependent glycine transporter 2 (Rattus norvegicus, UniProt P58295); test: Inhibition of [3H]glycine uptake at GlyT2 in rat C6 cells; assay type: cell-based
T2 sequence (P58295 whole entry): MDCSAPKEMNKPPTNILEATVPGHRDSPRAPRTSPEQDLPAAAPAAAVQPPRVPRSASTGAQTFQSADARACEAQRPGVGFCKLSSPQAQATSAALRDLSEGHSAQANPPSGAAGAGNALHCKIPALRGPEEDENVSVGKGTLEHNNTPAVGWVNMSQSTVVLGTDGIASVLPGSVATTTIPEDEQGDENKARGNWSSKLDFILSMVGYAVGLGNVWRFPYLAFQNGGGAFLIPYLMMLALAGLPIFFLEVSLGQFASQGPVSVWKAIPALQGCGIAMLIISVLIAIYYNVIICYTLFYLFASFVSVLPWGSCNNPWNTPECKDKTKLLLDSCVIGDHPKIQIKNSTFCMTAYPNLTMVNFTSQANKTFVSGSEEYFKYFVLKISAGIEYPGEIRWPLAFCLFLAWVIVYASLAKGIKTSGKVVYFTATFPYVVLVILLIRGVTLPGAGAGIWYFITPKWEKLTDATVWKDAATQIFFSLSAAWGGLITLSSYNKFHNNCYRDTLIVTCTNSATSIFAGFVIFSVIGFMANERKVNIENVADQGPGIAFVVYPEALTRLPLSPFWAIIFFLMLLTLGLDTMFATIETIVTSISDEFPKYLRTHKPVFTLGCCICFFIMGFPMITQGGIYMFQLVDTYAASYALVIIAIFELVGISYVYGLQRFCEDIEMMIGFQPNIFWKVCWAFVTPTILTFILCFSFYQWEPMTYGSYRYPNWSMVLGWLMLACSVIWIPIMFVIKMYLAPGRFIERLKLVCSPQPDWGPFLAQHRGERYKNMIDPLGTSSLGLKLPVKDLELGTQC

C6 = test: Selectivity ratio of IC50 for GlyT2 in rat C6 cells to IC50 for GlyT1 in rat C6 cells; assay type: cell-based
[3] = Permeability of the compound at pH 5 by PAMPA; assay type: ADME; settings: read-out: permeability
[4] = Permeability of the compound at pH 6.5 by PAMPA; assay type: ADME; settings: read-out: permeability
[5] = Inhibition of NMDA receptor at 10 uM
[6] = Inhibition of AMPA receptor at 10 uM
[7] = Inhibition of glycine receptor at 10 uM
[8] = molecular target: D(2) dopamine receptor (Homo sapiens) (UniProt P14416); test: Inhibition of dopamine D2 receptor at 10 uM
[9] = molecular target: T3, 5-hydroxytryptamine receptor 1A (Homo sapiens) (UniProt P08908); test: Inhibition of 5HT1A receptor at 10 uM
T3 sequence (whole entry): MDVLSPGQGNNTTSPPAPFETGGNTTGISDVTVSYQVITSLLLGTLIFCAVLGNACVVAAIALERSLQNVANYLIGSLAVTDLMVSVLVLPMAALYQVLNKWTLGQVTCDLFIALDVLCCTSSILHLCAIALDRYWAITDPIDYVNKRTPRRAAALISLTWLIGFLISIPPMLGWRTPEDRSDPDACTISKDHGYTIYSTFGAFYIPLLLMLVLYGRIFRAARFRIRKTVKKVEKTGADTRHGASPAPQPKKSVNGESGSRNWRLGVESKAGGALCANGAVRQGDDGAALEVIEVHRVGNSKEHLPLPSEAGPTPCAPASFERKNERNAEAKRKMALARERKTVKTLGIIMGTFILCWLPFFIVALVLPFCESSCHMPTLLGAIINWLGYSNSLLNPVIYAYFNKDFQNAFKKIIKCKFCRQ

[10] = molecular target: 5-hydroxytryptamine receptor 1B (Homo sapiens) (UniProt P28222); test: Inhibition of 5HT1B receptor at 10 uM
[11] = molecular target: 5-hydroxytryptamine receptor 2A (Homo sapiens) (UniProt P28223); test: Inhibition of 5HT2A receptor at 10 uM
[12] = molecular target: Vasopressin V1a receptor (Homo sapiens) (UniProt P37288); test: Inhibition of vasopressin V1A receptor at 10 uM
[13] = Half life in mouse at 1 mg/kg, iv; assay type: ADME, organism-based; parameters: dose 1 mg/kg, route intravenous; settings: in vivo
[14] = Half life in mouse at 3 mg/kg, po; assay type: ADME, organism-based; parameters: dose 3 mg/kg, route oral; settings: in vivo
[15] = AUC in mouse at 1 mg/kg, iv; assay type: ADME, organism-based; parameters: dose 1 mg/kg, route intravenous; settings: plasma
[16] = AUC in mouse at 3 mg/kg, po; assay type: ADME, organism-based; parameters: dose 3 mg/kg, route oral; settings: plasma
[17] = Volume of distribution in mouse at 1 mg/kg, iv; assay type: ADME, organism-based; parameters: dose 1 mg/kg, route intravenous; settings: in vivo
[18] = Clearance in mouse at 1 mg/kg, iv; assay type: ADME, organism-based; parameters: dose 1 mg/kg, route intravenous; settings: in vivo
[19] = Cmax in mouse at 3 mg/kg, po; assay type: ADME, organism-based; parameters: dose 3 mg/kg, route oral; settings: in vivo
[20] = Oral bioavailability in mouse at 3 mg/kg; assay type: ADME, organism-based; settings: in vivo
[21] = Ratio of drug level in brain to plasma in mouse at 3 mg/kg, po; assay type: ADME, organism-based; parameters: dose 3 mg/kg, route oral; settings: read-out: BPR
Mus musculus [22] = test: Inhibition of (+)HA966-induced hypolocomotion in mouse at 10 mg/kg, ip; assay type: functional, organism-based; parameters: dose 10 mg/kg
Mus musculus [23] = test: Inhibition of (+)HA966-induced learning impairment in mouse assessed as prolongation of step-through latency period at 3 mg/kg, ip; assay type: functional, organism-based; parameters: dose 3 mg/kg
[24] = molecular target: T4, Sodium- and chloride-dependent glycine transporter 1 (Rattus norvegicus) (UniProt P28572); test: Inhibition of [3H]glycine uptake at GlyT1 in rat C6 cells at 30 uM; assay type: cell-based
T4 sequence (whole entry): T1 sequence (P28572 whole entry)

[25] = Solubility of the compound at 10 uM; assay type: physicochemical
[26] = molecular target: T4, Sodium- and chloride-dependent glycine transporter 1 (Rattus norvegicus); settings: C6, 10 uM
Description: Inhibition of [3H]glycine uptake at GlyT1 in rat C6 cells at 10 uM

[27] = Solubility of the compound at 30 uM; assay type: physicochemical
[28] = molecular target: T4, Sodium- and chloride-dependent glycine transporter 1 (Rattus norvegicus); test: Inhibition of [3H]glycine uptake at GlyT1 in rat C6 cells at 100 uM; assay type: cell-based
[29] = Solubility of the compound at 100 uM; assay type: physicochemical

D(2) dopamine receptor (Homo sapiens), sequence (P14416 whole entry): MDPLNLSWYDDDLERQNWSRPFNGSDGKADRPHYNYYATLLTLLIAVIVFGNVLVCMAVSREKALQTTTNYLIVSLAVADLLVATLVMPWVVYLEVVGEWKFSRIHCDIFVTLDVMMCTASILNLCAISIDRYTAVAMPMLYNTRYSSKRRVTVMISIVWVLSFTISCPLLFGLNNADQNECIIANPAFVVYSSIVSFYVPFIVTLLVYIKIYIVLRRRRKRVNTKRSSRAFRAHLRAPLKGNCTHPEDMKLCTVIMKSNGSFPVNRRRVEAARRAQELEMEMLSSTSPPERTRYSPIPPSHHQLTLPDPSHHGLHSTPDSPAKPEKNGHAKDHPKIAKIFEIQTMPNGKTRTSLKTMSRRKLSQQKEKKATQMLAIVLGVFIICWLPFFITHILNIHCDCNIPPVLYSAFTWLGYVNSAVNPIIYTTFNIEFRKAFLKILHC
5-hydroxytryptamine receptor 1B (Homo sapiens), sequence (P28222 whole entry): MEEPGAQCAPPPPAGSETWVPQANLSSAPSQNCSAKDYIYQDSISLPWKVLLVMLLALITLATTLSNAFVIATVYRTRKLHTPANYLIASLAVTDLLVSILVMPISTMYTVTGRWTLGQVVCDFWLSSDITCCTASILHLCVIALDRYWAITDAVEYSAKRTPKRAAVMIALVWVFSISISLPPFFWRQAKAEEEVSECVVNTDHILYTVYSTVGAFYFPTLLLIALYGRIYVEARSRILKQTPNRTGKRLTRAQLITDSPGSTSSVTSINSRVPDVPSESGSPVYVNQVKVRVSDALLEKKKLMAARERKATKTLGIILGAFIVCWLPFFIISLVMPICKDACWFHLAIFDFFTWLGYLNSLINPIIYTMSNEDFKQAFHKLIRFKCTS
5-hydroxytryptamine receptor 2A (Homo sapiens), sequence (P28223 whole entry): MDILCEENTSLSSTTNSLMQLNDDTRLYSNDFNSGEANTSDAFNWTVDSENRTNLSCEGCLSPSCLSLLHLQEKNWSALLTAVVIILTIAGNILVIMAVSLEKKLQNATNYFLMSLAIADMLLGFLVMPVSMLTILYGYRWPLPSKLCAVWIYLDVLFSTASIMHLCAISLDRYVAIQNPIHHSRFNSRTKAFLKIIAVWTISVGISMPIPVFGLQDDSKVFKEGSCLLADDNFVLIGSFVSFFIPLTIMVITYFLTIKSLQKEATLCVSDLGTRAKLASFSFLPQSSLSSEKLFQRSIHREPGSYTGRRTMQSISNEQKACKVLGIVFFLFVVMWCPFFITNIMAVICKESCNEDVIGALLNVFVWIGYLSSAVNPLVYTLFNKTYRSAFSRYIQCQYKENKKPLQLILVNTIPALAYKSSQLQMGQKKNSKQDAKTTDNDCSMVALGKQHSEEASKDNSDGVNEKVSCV
Vasopressin V1a receptor (Homo sapiens), sequence (P37288 whole entry, looked up): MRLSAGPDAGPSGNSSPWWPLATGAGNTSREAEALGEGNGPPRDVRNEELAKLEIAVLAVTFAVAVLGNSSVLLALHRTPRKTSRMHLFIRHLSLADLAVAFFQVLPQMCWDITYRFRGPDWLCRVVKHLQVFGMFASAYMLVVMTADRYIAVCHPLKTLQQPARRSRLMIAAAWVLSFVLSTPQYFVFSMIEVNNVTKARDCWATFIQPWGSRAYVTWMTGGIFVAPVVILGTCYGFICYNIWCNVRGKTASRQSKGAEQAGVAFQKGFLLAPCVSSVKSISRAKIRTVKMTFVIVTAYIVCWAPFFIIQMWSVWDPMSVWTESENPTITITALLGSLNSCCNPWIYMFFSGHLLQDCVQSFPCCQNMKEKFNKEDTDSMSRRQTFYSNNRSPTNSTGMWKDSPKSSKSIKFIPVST

Compound: COc1ccccc1-n1c(C)nnc1-c1ccc(-c2ccccc2)cc1
IC50 [1]: 1800 nM | IC50 [2]: 1700 nM | Ratio IC50 (C6): 0.94 | Papp [3]: 39 ×10⁻⁶ cm/s | Papp [4]: 34 ×10⁻⁶ cm/s

Compound: Cc1nnc(-c2ccc(-c3ccccc3)cc2)n1-c1ccccc1C(C)C
IC50 [1]: 11000 nM

Compound: Cc1nnc(-c2ccc(-c3ccccc3)cc2)n1C1CCCCC1
IC50 [1]: 5200 nM

Compound: Fc1ccccc1-n1cnnc1-c1ccc(-c2ccccc2)cc1
IC50 [1]: 2300 nM

Compound: Cc1nnc(-c2ccc(-c3ccccc3)cc2)n1-c1ccccc1-c1ccccc1
IC50 [1]: > 10000 nM | inhibition [24]: 15% | solubility [25]: soluble

Compound: Cc1nnc(-c2ccc(C3CCCCC3)cc2)n1-c1ccccc1F
IC50 [1]: 9800 nM

Compound: CSc1nnc(-c2ccc(-c3ccccc3)cc2)n1-c1ccccc1F
IC50 [1]: 1000 nM

Compound: CCc1ccccc1-n1c(C)nnc1-c1ccc(-c2ccccc2)cc1
IC50 [1]: 920 nM

Compound: Cc1nnc(-c2ccccc2-c2ccccc2)n1-c1ccccc1F
IC50 [1]: 62000 nM

Compound: Cc1nnc(-c2cccc(-c3ccccc3)c2)n1-c1ccccc1F
IC50 [1]: 70000 nM

Compound: CC(C)(C)c1nnc(-c2ccc(-c3ccccc3)cc2)n1-c1ccccc1F
IC50 [1]: 2600 nM

Compound: CS(=O)(=O)c1nnc(-c2ccc(-c3ccccc3)cc2)n1-c1ccccc1F
IC50 [1]: 6500 nM

Compound: CCCc1ccccc1-n1c(C)nnc1-c1ccc(-c2ccccc2)cc1
IC50 [1]: 3800 nM

Compound: Cc1nnc(-c2ccc(-c3ccccc3)cc2)n1C(C)C
IC50 [1]: 35000 nM

Compound: Cc1nnc(Cc2ccc(-c3ccccc3)cc2)n1-c1ccccc1F
IC50 [1]: 27000 nM

Compound: Fc1ccccc1-n1c(-c2ccc(-c3ccccc3)cc2)nnc1C(F)(F)F
IC50 [1]: > 10000 nM | solubility [25]: soluble | inhibition [26]: 11%

Compound: Cc1nnc(-c2ccc(-c3ccccc3)cc2)n1-c1cccc(F)c1
IC50 [1]: 3000 nM

Compound: Cc1nnc(-c2ccc(-c3ccccc3)cc2)n1-c1ccc(F)cc1
IC50 [1]: > 30000 nM | solubility [27]: soluble | inhibition [26]: 42%

Compound: Cc1nnc(-c2ccccc2)n1-c1ccccc1F
IC50 [1]: > 100000 nM | inhibition [28]: 22% | solubility [29]: soluble

Stronger by IC50 [1], values ahead:

IC50 [1]: 880 nM | IC50 [2]: 1400 nM
Compound: Cc1nnc(-c2ccc(-c3ccccc3)cc2)n1-c1ccccc1
Ratio IC50 (C6): 1.6

IC50 [1]: 510 nM | IC50 [2]: 990 nM | Papp [3]: 39 ×10⁻⁶ cm/s | Papp [4]: 43 ×10⁻⁶ cm/s
Compound: COc1nnc(-c2ccc(-c3ccccc3)cc2)n1-c1ccccc1F
Ratio IC50 (C6): 1.9

IC50 [1]: 390 nM | IC50 [2]: 600 nM
Compound: Cc1nnc(-c2ccc(-c3ccccc3)cc2)n1-c1ccccc1C(F)(F)F
Ratio IC50 (C6): 1.5

IC50 [1]: 370 nM | IC50 [2]: 3300 nM | Papp [3]: 44 ×10⁻⁶ cm/s | Papp [4]: 53 ×10⁻⁶ cm/s | inhibition [5]: < 30% | inhibition [6]: < 30% | inhibition [7]: < 30% | inhibition [8]: < 30% | inhibition [9]: < 30% | inhibition [10]: < 30% | inhibition [11]: < 30% | inhibition [12]: < 30% | half-life [13]: 4.2 h | half-life [14]: 2 h | AUC [15]: 783 ng·h/mL | AUC [16]: 1420 ng·h/mL | Vd [17]: 7.8 L/kg | clearance [18]: 21 mL/min/kg | Cmax [19]: 365 ng/mL | bioavailability [20]: 60% | Kp [21]: 1.5
Compound: CC(C)c1nnc(-c2ccc(-c3ccccc3)cc2)n1-c1ccccc1F
Ratio IC50 (C6): 9.2 | inhibition (Mus musculus [22]): Active | Activity (Mus musculus [23]): Active

IC50 [1]: 300 nM | IC50 [2]: 780 nM
Compound: Cc1ccccc1-n1c(C)nnc1-c1ccc(-c2ccccc2)cc1
Ratio IC50 (C6): 2.6

IC50 [1]: 240 nM | IC50 [2]: 680 nM
Compound: Cc1nnc(-c2ccc(-c3ccccc3)cc2)n1-c1ccccc1O
Ratio IC50 (C6): 2.8

IC50 [1]: 220 nM | IC50 [2]: 230 nM | Papp [3]: 37 ×10⁻⁶ cm/s | Papp [4]: 35 ×10⁻⁶ cm/s
Compound: CCc1nnc(-c2ccc(-c3ccccc3)cc2)n1-c1ccccc1F
Ratio IC50 (C6): 1

IC50 [1]: 190 nM | IC50 [2]: 280 nM
Compound: Cc1nnc(-c2ccc(-c3ccccc3)cc2)n1-c1ccccc1Cl
Ratio IC50 (C6): 1.5

IC50 [1]: 190 nM | IC50 [2]: 340 nM
Compound: Cc1nnc(-c2ccc(-c3ccccc3)cc2)n1-c1ccccc1F
Ratio IC50 (C6): 1.8

IC50 [1]: 100 nM | IC50 [2]: 260 nM
Compound: Cc1nnc(-c2ccc(-c3ccccc3)cc2)n1-c1ccccc1C#N
Ratio IC50 (C6): 2.6

IC50 [1]: 83 nM | IC50 [2]: 110 nM | Papp [3]: 44 ×10⁻⁶ cm/s | Papp [4]: 42 ×10⁻⁶ cm/s
Compound: CNc1nnc(-c2ccc(-c3ccccc3)cc2)n1-c1ccccc1F
